Measurements: ChEMBL document CHEMBL1132968, “Substituent effects on the antibacterial activity of nitrogen-carbon-linked (azolylphenyl)oxazolidinones with expanded activity against the fastidious gram-negative organisms Haemophilus influenzae and Moraxella catarrhalis” (2000)
In brackets after ≈: the same amount, converted by molar mass.

Experiments:
Assay type in all cases: functional
[1] = test system: Enterococcus faecalis; assay: Inhibitory activity against Enterococcus faecalis UC9217
[2] = test system: Streptococcus pneumoniae; assay: Inhibitory activity against Streptococcus pneumoniae UC9912
[3] = test system: Haemophilus influenzae; assay: Inhibitory activity against Haemophilus influenzae UC30063
[4] = test system: Staphylococcus aureus; assay: Inhibitory activity against Methicillin-susceptible Staphylococcus aureus UC9213
[5] = test system: Moraxella catarrhalis; assay: Inhibitory activity against Moraxella catarrhalis UC30610
[6] = test system: Staphylococcus aureus; assay: Inhibitory activity against Methicillin-resistant Staphylococcus aureus UC6685
[7] = test system: Staphylococcus epidermidis; assay: Inhibitory activity against Methicillin-resistant Staphylococcus epidermidis UC12084

| Structure (SMILES) | MIC [1] [µg/mL] | MIC [2] [µg/mL] | MIC [3] [µg/mL] | MIC [4] [µg/mL] | MIC [5] [µg/mL] | MIC [6] [µg/mL] | MIC [7] [µg/mL] |
| --- | --- | --- | --- | --- | --- | --- | --- |
| CC(=O)NC[C@H]1CN(c2ccc(-n3ccc(NC(C)=O)n3)c(F)c2)C(=O)O1 | 4 (≈ 10.7 µM) | 0.5 (≈ 1.33 µM) | > 16 | 8 (≈ 21.3 µM) | > 16 | 8 (≈ 21.3 µM) | 2 (≈ 5.33 µM) |
| CC(=O)NC[C@H]1CN(c2ccc(-n3cnc(C#N)n3)c(F)c2)C(=O)O1 | 4 (≈ 11.6 µM) | 1 (≈ 2.9 µM) | 16 (≈ 46.5 µM) | 4 (≈ 11.6 µM) | 16 (≈ 46.5 µM) | 2 (≈ 5.81 µM) | 2 (≈ 5.81 µM) |
| CC(=O)NC[C@H]1CN(c2ccc(-n3cnc(C)n3)c(F)c2)C(=O)O1 | 8 (≈ 24 µM) | 1 (≈ 3 µM) | > 16 | 8 (≈ 24 µM) | 16 (≈ 48 µM) | 4 (≈ 12 µM) | 2 (≈ 6 µM) |
| CC(=O)NC[C@H]1CN(c2ccc(-n3cnc(C(N)=O)n3)c(F)c2)C(=O)O1 | > 16 | 2 (≈ 5.52 µM) | > 16 | > 16 | 16 (≈ 44.2 µM) | – | 16 (≈ 44.2 µM) |
| CC(=O)NC[C@H]1CN(c2ccc(-n3ccc(C(N)=O)c3)c(F)c2)C(=O)O1 | 4 (≈ 11.1 µM) | 0.25 (≈ 0.694 µM) | > 16 | 16 (≈ 44.4 µM) | > 16 | 8 (≈ 22.2 µM) | 1 (≈ 2.78 µM) |
| CC(=O)NC[C@H]1CN(c2ccc(-n3cnc(CO)n3)c(F)c2)C(=O)O1 | 16 (≈ 45.8 µM) | 1 (≈ 2.86 µM) | 16 (≈ 45.8 µM) | 16 (≈ 45.8 µM) | 8 (≈ 22.9 µM) | 16 (≈ 45.8 µM) | 2 (≈ 5.73 µM) |
| CC(=O)NC[C@H]1CN(c2ccc(-n3ccc(C(C)O)c3)c(F)c2)C(=O)O1 (stereo not given in full) | 8 (≈ 22.1 µM) | 2 (≈ 5.53 µM) | > 16 | 16 (≈ 44.3 µM) | > 16 | 16 (≈ 44.3 µM) | 4 (≈ 11.1 µM) |
| CC(=O)NC[C@H]1CN(c2ccc(-n3cc(C#C[Si](C)(C)C)cn3)c(F)c2)C(=O)O1 | 8 (≈ 19.3 µM) | 2 (≈ 4.82 µM) | > 16 | 4 (≈ 9.65 µM) | > 16 | 4 (≈ 9.65 µM) | 2 (≈ 4.82 µM) |
| CC(=O)NC[C@H]1CN(c2ccc(-n3ccc(CCCO)c3)c(F)c2)C(=O)O1 | 2 (≈ 5.33 µM) | 0.5 (≈ 1.33 µM) | > 16 | 4 (≈ 10.7 µM) | 8 (≈ 21.3 µM) | 4 (≈ 10.7 µM) | 1 (≈ 2.66 µM) |
| CC(=O)NC[C@H]1CN(c2ccc(-n3cc(I)cn3)c(F)c2)C(=O)O1 | 2 (≈ 4.5 µM) | 0.5 (≈ 1.13 µM) | > 16 | 2 (≈ 4.5 µM) | 8 (≈ 18 µM) | 2 (≈ 4.5 µM) | 1 (≈ 2.25 µM) |
| CC(=O)NC[C@H]1CN(c2ccc(-n3ccc(C#N)n3)c(F)c2)C(=O)O1 | 2 (≈ 5.83 µM) | 0.5 (≈ 1.46 µM) | 16 (≈ 46.6 µM) | 1 (≈ 2.91 µM) | 8 (≈ 23.3 µM) | 1 (≈ 2.91 µM) | 0.5 (≈ 1.46 µM) |
| COc1ccn(-c2ccc(N3C[C@H](CNC(C)=O)OC3=O)cc2F)n1 | 16 (≈ 45.9 µM) | 2 (≈ 5.74 µM) | 16 (≈ 45.9 µM) | 8 (≈ 23 µM) | 16 (≈ 45.9 µM) | 8 (≈ 23 µM) | 2 (≈ 5.74 µM) |
| CC(=O)NC[C@H]1CN(c2ccc(-n3cnc(NC(=O)Cc4ccccc4)n3)c(F)c2)C(=O)O1 | > 16 | 2 (≈ 4.42 µM) | > 16 | > 16 | > 16 | – | > 16 |
| CCOC(=O)CCc1ccn(-c2ccc(N3C[C@H](CNC(C)=O)OC3=O)cc2F)c1 | 2 (≈ 4.79 µM) | 0.5 (≈ 1.2 µM) | > 16 | 4 (≈ 9.58 µM) | 2 (≈ 4.79 µM) | 4 (≈ 9.58 µM) | 1 (≈ 2.4 µM) |
| CC(=O)NC[C@H]1CN(c2ccc(-n3ncnn3)c(F)c2)C(=O)O1 | 1 (≈ 3.12 µM) | 0.5 (≈ 1.56 µM) | 8 (≈ 25 µM) | 2 (≈ 6.24 µM) | 8 (≈ 25 µM) | 2 (≈ 6.24 µM) | 1 (≈ 3.12 µM) |
| CC(=O)NC[C@H]1CN(c2ccc(-n3ccc(NC(=O)OC(C)(C)C)n3)c(F)c2)C(=O)O1 | 2 (≈ 4.61 µM) | 0.5 (≈ 1.15 µM) | > 16 | 4 (≈ 9.23 µM) | 8 (≈ 18.5 µM) | 2 (≈ 4.61 µM) | 2 (≈ 4.61 µM) |
| COC(=O)c1ncn(-c2ccc(N3C[C@H](CNC(C)=O)OC3=O)cc2F)n1 | > 16 | 4 (≈ 10.6 µM) | > 16 | > 16 | > 16 | – | 4 (≈ 10.6 µM) |
| CC(=O)NC[C@H]1CN(c2ccc(-n3nnc(/C=N/O)n3)c(F)c2)C(=O)O1 | 4 (≈ 11 µM) | 0.5 (≈ 1.38 µM) | 16 (≈ 44 µM) | 4 (≈ 11 µM) | 8 (≈ 22 µM) | 4 (≈ 11 µM) | 1 (≈ 2.75 µM) |
| CC(=O)NC[C@H]1CN(c2ccc(-n3ccc(N)n3)c(F)c2)C(=O)O1 | 4 (≈ 12 µM) | 0.5 (≈ 1.5 µM) | 16 (≈ 48 µM) | 2 (≈ 6 µM) | 16 (≈ 48 µM) | 4 (≈ 12 µM) | 1 (≈ 3 µM) |
| CC(=O)NC[C@H]1CN(c2ccc(-n3ccc(NC(=O)CO)n3)c(F)c2)C(=O)O1 | 8 (≈ 20.4 µM) | 1 (≈ 2.56 µM) | > 16 | 16 (≈ 40.9 µM) | > 16 | 16 (≈ 40.9 µM) | 4 (≈ 10.2 µM) |
| CC(=O)NC[C@H]1CN(c2ccc(-n3nnc(C=O)n3)c(F)c2)C(=O)O1 | 16 (≈ 45.9 µM) | 1 (≈ 2.87 µM) | 16 (≈ 45.9 µM) | 8 (≈ 23 µM) | 16 (≈ 45.9 µM) | 4 (≈ 11.5 µM) | 2 (≈ 5.74 µM) |
| CC(=O)NC[C@H]1CN(c2ccc(-n3cc(/C=N/O)nn3)c(F)c2)C(=O)O1 | 8 (≈ 22.1 µM) | 0.5 (≈ 1.38 µM) | > 16 | 8 (≈ 22.1 µM) | 8 (≈ 22.1 µM) | 2 (≈ 5.52 µM) | 1 (≈ 2.76 µM) |
| CO/N=C(/C)c1ccn(-c2ccc(N3C[C@H](CNC(C)=O)OC3=O)cc2F)c1 | 2 (≈ 5.15 µM) | 0.5 (≈ 1.29 µM) | > 16 | 4 (≈ 10.3 µM) | 8 (≈ 20.6 µM) | 2 (≈ 5.15 µM) | 1 (≈ 2.57 µM) |
| CC(=O)NC[C@H]1CN(c2ccc(-n3nnc(C#N)n3)c(F)c2)C(=O)O1 | 2 (≈ 5.79 µM) | 0.5 (≈ 1.45 µM) | 16 (≈ 46.3 µM) | 2 (≈ 5.79 µM) | 4 (≈ 11.6 µM) | 1 (≈ 2.9 µM) | 0.5 (≈ 1.45 µM) |
| CC(=O)NC[C@H]1CN(c2ccc(-n3ccc(C(F)(F)F)n3)c(F)c2)C(=O)O1 | 8 (≈ 20.7 µM) | 1 (≈ 2.59 µM) | > 16 | 4 (≈ 10.4 µM) | > 16 | 4 (≈ 10.4 µM) | 2 (≈ 5.18 µM) |
| CC(=O)NC[C@H]1CN(c2ccc(-n3cnc(C#N)c3)c(F)c2)C(=O)O1 | 2 (≈ 5.83 µM) | 0.25 (≈ 0.728 µM) | 8 (≈ 23.3 µM) | 4 (≈ 11.7 µM) | 4 (≈ 11.7 µM) | 4 (≈ 11.7 µM) | 0.5 (≈ 1.46 µM) |
| C#Cc1cnn(-c2ccc(N3C[C@H](CNC(C)=O)OC3=O)cc2F)c1 | 2 (≈ 5.84 µM) | 0.5 (≈ 1.46 µM) | > 16 | 2 (≈ 5.84 µM) | 8 (≈ 23.4 µM) | 2 (≈ 5.84 µM) | 1 (≈ 2.92 µM) |
| CNC(=O)c1cn(-c2ccc(N3C[C@H](CNC(C)=O)OC3=O)cc2F)nn1 | 8 (≈ 21.3 µM) | 1 (≈ 2.66 µM) | > 16 | 8 (≈ 21.3 µM) | > 16 | 4 (≈ 10.6 µM) | 2 (≈ 5.31 µM) |
| CNC(=O)c1cnn(-c2ccc(N3C[C@H](CNC(C)=O)OC3=O)cc2F)c1 | 16 (≈ 42.6 µM) | 0.5 (≈ 1.33 µM) | > 16 | > 16 | 16 (≈ 42.6 µM) | – | 2 (≈ 5.33 µM) |
| CC(=O)NC[C@H]1CN(c2ccc(-n3ccc(NS(C)(=O)=O)n3)c(F)c2)C(=O)O1 | > 16 | 4 (≈ 9.72 µM) | > 16 | > 16 | > 16 | – | 4 (≈ 9.72 µM) |
